ChEMBL document CHEMBL1201862, “PubChem BioAssay data set” (2004)
Calls of active or inactive are those of the source.

Assays:
cells = assay type: functional
Cytochrome P450 3A4 = Cytochrome P450 3A4 (Homo sapiens, UniProt P08684);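 further: CYP3A4 tested as one member of a cytochrome P450 panel screen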
[1] = cytotoxicity in HEK-293T cells, dose response, cytotoxicity control for BCR NF-kB inhibitor project, luminescence, B-cell screen hits (AID 489021); assay type: functional, cell-based;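 further: HEK-293T cells carrying an NF-kB luciferase reporter; cells exposed to compound for about 14 hours before viability readout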
Aminopeptidase N = molecular target: T1, Aminopeptidase N (Plasmodium falciparum FcB1/Columbia, UniProt O96935); assay: P. falciparum M1AAP inhibitors, biochemical, fluorogenic H-Leu-NHMec substrate, 1536-well (AID 1445); set-up: species or system Plasmodium falciparum 3D7, 3D7
T1 sequence (O96935 whole entry): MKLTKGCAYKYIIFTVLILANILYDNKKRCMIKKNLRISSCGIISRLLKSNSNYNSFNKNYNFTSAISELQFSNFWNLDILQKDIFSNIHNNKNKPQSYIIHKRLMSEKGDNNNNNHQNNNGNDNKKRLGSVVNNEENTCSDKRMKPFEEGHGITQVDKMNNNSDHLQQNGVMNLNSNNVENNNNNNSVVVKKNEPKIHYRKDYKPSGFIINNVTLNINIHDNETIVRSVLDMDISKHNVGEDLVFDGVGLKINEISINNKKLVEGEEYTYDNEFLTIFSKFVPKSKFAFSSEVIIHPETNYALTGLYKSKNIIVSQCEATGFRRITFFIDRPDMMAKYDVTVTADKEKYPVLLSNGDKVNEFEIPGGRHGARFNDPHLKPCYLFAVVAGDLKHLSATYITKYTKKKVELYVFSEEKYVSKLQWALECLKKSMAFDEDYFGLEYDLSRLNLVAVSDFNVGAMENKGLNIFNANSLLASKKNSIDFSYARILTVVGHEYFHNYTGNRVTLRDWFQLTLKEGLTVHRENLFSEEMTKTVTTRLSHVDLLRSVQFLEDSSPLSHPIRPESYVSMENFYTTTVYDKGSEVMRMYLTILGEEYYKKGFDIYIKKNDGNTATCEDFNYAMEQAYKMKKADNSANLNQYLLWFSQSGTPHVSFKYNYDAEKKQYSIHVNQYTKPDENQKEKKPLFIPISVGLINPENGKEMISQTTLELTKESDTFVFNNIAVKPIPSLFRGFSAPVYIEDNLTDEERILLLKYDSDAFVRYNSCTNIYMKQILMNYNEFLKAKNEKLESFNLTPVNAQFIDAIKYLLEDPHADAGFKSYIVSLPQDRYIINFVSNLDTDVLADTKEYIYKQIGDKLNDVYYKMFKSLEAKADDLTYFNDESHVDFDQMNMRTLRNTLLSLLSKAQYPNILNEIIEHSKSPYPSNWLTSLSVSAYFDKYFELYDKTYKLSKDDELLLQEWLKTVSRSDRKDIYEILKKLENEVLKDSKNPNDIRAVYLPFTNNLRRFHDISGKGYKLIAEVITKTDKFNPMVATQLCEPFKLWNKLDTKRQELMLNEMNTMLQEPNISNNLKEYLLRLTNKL

[2] = molecular target: Induced myeloid leukemia cell differentiation protein Mcl-1 (Homo sapiens, UniProt Q07820); assay type: functional
Induced myeloid leukemia cell differentiation protein Mcl-1, sequence (Q07820 whole entry, the tested form may be a part): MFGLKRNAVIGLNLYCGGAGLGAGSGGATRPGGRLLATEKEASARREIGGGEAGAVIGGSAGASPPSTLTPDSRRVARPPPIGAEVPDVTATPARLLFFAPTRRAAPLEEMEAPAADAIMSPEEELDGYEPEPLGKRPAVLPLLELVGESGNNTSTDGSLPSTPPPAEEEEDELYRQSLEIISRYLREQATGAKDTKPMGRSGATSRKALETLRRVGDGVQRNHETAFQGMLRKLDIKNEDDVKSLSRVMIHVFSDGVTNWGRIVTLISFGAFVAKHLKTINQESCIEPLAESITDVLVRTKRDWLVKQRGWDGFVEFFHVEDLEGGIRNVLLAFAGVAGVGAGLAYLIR

[3] = molecular target: T2, Carboxy-terminal domain RNA polymerase II polypeptide A small phosphatase 1 (Homo sapiens, UniProt Q9GZU7); assay: inhibitors of CTDSP1, concentration-response testing, biochemical assay, absorbance-based, actives from ultra-high-throughput screening (AID 540297); assay type: functional
T2 sequence (Q9GZU7 whole entry): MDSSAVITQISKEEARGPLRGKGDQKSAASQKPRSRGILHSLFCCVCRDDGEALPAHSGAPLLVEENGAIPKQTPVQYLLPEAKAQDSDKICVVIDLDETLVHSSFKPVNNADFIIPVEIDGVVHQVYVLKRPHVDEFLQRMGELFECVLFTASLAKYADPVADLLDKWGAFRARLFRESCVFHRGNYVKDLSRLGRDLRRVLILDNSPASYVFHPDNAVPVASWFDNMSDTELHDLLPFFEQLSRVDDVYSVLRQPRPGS

SUMO-activating enzyme [4] = molecular target: T3, SUMO-activating enzyme (Homo sapiens, UniProt Q9UBT2); assay: SUMOylation inhibitor hit validation, confirmation, SUMOylation inhibitor project, biochemical, AlphaScreen (AID 2018); assay type: functional
T3 sequence (Q9UBE0 whole entry): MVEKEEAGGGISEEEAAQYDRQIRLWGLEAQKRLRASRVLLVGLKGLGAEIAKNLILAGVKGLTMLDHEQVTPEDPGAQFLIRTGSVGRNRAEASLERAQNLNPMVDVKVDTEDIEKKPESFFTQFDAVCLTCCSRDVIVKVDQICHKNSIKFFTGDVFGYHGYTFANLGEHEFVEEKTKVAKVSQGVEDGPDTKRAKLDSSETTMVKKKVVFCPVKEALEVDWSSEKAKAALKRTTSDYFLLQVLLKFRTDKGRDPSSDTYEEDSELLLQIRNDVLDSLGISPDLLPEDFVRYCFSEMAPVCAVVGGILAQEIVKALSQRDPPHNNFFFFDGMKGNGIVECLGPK
T3 sequence (Q9UBT2 whole entry): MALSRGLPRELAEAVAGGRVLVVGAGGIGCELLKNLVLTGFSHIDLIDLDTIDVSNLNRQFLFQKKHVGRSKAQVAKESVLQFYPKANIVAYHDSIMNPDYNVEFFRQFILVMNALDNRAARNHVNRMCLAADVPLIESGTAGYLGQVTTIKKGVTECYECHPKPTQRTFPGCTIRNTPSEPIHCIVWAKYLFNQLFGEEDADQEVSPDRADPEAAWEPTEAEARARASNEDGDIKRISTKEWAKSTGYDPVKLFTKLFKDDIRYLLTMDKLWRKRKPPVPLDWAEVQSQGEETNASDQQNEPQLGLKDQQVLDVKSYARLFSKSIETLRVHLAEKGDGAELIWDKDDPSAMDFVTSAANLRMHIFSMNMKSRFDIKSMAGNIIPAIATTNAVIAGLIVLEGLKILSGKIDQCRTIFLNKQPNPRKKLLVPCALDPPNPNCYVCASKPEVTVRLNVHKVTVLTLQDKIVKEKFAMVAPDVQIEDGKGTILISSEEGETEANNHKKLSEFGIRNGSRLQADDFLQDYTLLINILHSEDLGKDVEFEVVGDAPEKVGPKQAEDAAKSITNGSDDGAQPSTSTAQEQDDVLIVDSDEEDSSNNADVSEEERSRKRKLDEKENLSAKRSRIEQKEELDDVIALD

SUMO-activating enzyme [5] = molecular target: T3, SUMO-activating enzyme; assay: inhibitors of in vitro SUMOylation cascade, primary screen, biochemical, HTRF, uHTS (AID 2006); assay type: protein-complex assay
Cytochrome P450 2C19 = Cytochrome P450 2C19 (Homo sapiens, UniProt P33261); assay: Cytochrome panel assay with activity outcomes. Panel member name: p450-cyp2c19 Compounds with AC50 equal or less than 10 uM are considered active; assay type: functional; conditions: read-out: AC50
Cytochrome P450 2C19, sequence (P33261 whole entry): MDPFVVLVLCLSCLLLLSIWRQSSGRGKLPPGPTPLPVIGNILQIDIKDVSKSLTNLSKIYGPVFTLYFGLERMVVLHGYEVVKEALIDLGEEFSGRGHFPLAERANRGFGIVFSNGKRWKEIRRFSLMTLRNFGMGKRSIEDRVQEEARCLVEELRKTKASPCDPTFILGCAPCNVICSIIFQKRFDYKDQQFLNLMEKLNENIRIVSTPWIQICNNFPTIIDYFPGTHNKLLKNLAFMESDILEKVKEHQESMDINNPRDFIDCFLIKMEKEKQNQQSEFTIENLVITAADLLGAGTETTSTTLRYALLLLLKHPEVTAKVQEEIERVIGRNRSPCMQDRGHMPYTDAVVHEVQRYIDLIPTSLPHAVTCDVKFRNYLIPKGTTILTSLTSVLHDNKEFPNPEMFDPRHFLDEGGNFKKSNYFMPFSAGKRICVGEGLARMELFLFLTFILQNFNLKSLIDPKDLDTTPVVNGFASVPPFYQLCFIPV

Cytochrome P450 2C9 = Cytochrome P450 2C9 (Homo sapiens, UniProt P11712)
Cytochrome P450 2C9, sequence (P11712 whole entry): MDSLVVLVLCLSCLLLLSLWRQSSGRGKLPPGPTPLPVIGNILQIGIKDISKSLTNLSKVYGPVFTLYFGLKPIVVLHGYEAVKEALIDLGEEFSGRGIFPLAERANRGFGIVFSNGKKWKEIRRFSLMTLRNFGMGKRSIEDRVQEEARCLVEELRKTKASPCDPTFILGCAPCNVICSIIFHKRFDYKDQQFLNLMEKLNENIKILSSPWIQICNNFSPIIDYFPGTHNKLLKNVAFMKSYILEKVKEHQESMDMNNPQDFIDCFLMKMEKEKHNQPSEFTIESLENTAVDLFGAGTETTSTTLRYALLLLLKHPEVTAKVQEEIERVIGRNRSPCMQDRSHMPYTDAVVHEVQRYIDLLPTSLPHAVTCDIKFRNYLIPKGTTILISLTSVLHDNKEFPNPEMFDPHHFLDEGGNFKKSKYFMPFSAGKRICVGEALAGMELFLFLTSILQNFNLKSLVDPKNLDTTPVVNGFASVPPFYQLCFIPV

Bcl-2-related protein A1 = molecular target: T4, Bcl-2-related protein A1 (Mus musculus, UniProt Q07440); assay type: functional;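 further: confirmatory dose–response counterscreen on Bfl-1, used to check hits from a UBC13 polyubiquitin inhibitor campaign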
T4 sequence (Q07440 whole entry): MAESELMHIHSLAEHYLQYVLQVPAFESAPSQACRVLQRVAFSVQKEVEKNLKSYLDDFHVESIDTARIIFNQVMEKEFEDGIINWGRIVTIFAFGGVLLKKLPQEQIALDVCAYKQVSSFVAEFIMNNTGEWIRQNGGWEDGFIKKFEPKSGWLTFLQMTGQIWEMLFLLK

[6] = molecular target: T5, Ubiquitin-conjugating enzyme E2 N (Homo sapiens, UniProt P61088); assay type: functional
T5 sequence (P61088 whole entry): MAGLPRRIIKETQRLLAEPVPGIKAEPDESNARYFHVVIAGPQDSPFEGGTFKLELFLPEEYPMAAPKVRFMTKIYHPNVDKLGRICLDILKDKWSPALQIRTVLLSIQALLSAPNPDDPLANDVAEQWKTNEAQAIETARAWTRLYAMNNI

[7] = molecular target: T5, Ubiquitin-conjugating enzyme E2 N; assay type: functional; remark: listed apart in the source
[8] = NIH-3T3 fibroblast cytotoxicity, dose response, cytotoxicity control, cell-based, fluorescence, Alamar Blue, secondary assay (AID 2327); assay type: functional;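 further: NIH-3T3 mouse fibroblasts cultured with fluconazole at 8 µg/mL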
[9] = C. albicans growth with fluconazole, confirmation, fluorescence, retest (AID 2467); assay type: functional, cell-based
[10] = inhibitors of intracellular T. cruzi replication, confirmation, NIH3T3 host cells, beta-gal luminescence (AID 2044); assay type: functional, cell-based;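 further: intracellular parasites grown in NIH/3T3 mouse fibroblasts as host cells; luminescent beta-galactosidase reporter signal from transgenic T. cruzi replicating inside host cells; inhibitors lower the luminescence signal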
[11] = cytotoxicity toward NIH3T3 fibroblasts, dose response, counter-screen, cell-based, ATP luminescence, mouse fibroblasts (AID 2010); assay type: functional;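 further: cells exposed to compound for about 90 hours before reading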
[12] = molecular target: T6, Microphthalmia-associated transcription factor (Homo sapiens, UniProt O75030); assay: TRPM1 promoter luciferase signal decrease, dose response, MITF inhibitor project, cell-based, SK-MEL-5, cherry-picked, set 3 (AID 493073); assay type: functional
T6 sequence (O75030 whole entry): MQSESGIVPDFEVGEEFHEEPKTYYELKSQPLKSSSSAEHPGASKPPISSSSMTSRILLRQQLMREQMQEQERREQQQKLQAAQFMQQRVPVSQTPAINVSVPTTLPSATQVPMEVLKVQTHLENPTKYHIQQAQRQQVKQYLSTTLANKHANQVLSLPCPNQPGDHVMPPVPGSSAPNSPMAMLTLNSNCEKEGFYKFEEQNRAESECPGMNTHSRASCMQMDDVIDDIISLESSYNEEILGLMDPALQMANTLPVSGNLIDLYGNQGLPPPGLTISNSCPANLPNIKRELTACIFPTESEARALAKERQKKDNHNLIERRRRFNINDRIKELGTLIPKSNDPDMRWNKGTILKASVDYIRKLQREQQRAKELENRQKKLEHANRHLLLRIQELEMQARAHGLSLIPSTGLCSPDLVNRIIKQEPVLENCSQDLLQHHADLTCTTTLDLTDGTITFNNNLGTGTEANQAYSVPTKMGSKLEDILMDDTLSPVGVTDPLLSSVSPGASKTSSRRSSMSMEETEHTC

INS1 = assay: beta cell apoptosis inhibitors, cytokine rescue, dose response, luminescence, retest (AID 449756); assay type: functional, cell-based; conditions: Rattus norvegicus;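 further: cell death triggered by IL-1 beta plus TNF-alpha plus IFN-gamma mixture; protective hits raise ATP signal compared with cytokine alone wells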
Leucine aminopeptidase = molecular target: T7, Leucine aminopeptidase (Plasmodium falciparum 3D7, UniProt Q8IL11); assay: P. falciparum M17LAP inhibitors, primary screen, biochemical, fluorogenic H-Leu-NHMec substrate, 1536-well (AID 1619); assay type: functional
T7 sequence (Q8IL11 whole entry): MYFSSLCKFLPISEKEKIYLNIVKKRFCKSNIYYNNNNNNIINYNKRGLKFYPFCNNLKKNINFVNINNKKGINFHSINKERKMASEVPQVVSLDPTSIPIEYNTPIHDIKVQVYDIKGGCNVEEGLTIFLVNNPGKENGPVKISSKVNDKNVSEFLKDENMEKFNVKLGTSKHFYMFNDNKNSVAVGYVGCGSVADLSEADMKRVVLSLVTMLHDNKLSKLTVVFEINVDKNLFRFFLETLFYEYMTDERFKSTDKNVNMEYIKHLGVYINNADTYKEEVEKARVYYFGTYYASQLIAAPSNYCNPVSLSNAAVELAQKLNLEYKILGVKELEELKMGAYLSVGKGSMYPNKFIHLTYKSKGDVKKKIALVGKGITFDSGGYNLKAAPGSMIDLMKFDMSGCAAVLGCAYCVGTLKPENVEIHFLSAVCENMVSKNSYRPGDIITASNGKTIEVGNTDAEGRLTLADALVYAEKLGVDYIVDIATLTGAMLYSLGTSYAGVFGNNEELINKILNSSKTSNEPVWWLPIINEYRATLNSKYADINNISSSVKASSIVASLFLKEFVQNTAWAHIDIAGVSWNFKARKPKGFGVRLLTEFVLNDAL

[13] = molecular target: T8, Calpain-2 catalytic subunit (Sus scrofa, UniProt P43367); assay: pig calpain II inhibitor potency, dose response, biochemical, fluorogenic peptide substrate (AID 1420); assay type: functional
T8 sequence (P43367 whole entry): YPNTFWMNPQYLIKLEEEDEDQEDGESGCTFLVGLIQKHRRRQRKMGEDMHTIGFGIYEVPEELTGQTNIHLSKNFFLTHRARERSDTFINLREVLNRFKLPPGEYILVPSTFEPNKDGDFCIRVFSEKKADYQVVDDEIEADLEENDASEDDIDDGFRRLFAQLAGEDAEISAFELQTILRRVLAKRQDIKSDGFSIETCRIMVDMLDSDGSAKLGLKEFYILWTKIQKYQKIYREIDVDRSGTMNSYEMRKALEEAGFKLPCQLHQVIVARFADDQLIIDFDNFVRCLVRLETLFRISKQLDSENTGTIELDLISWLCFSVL

Cytochrome P450 3A4, sequence (P08684 whole entry): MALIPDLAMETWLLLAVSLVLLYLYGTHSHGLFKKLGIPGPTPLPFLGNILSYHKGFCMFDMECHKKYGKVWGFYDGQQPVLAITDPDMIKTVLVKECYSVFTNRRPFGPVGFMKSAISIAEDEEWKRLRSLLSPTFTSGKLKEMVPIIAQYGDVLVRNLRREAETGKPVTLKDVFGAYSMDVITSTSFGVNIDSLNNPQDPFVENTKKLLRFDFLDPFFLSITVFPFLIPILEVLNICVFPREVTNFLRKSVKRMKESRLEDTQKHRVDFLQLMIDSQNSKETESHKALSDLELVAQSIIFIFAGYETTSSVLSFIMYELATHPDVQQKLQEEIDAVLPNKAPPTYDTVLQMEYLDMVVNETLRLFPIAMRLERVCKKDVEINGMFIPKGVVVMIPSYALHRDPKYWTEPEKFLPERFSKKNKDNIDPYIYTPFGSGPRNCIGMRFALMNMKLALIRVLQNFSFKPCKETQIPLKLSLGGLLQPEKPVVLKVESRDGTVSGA

O=C(COC(=O)c1cc(Br)ccc1O)Nc1ccc2c(c1)OCO2
IC50 (cells): 22.1 µM (active)

CNc1cc(-c2ccccc2C(F)(F)F)ncn1
AC50 (Cytochrome P450 3A4): inconclusive

CCOc1ccc(-c2nnc(SCC(=O)Nc3cc(C)on3)o2)cc1
IC50 [1]: > 80 µM (inactive)

CS(=O)(=O)C1=NSC2=NC(=O)/C(=C\c3cccn3-c3ccc(Cl)cc3)C(=N)N21
IC50 (Aminopeptidase N): 5.15 µM (active)
IC50 [2]: 4.98 µM (active)
IC50 [3]: 5.93 µM (active)

O=C1NC(=S)NC(=O)C1=NNc1ccc(-c2ccccc2)cc1[N+](=O)[O-]
IC50 (Aminopeptidase N): 10.5 µM (active)
IC50 (SUMO-activating enzyme [4]): 4.11 µM (active)
IC50 (SUMO-activating enzyme [5]): 22.4 µM (active)
IC50 [2]: 4.83 µM (active)

O=C(Oc1ccccc1)N1CCC2(CC1)CN(C(c1ccccc1)c1ccccc1)C2
AC50 (Cytochrome P450 2C19): 31.6 µM (inconclusive)
AC50 (Cytochrome P450 2C9): 39.8 µM (inconclusive)
AC50 (Cytochrome P450 3A4): inconclusive

CC(C)CC(C(=O)NC(C)(C)C)N(CC1CCCO1)C(=O)c1snc(C(N)=O)c1N (centres undefined)
IC50 (Bcl-2-related protein A1): > 20 µM (inactive)
IC50 [6]: 13.4 µM (active)
IC50 [7]: 11.2 µM (active)

CCOC(=O)c1c(C)[nH]c(C)c1C(=O)COC(=O)c1ccc([N+](=O)[O-])s1
IC50 (cells): 8.59 µM (active)

COc1ccc(-c2cc(-c3ccccc3)[n+](C)c(-c3ccccc3)c2)cc1.[O-][Cl+3]([O-])([O-])[O-]
EC50 [8]: > 160 µM (inactive)
EC50 [9]: 0.57 µM (active)
EC50 [10]: 0.131 µM (active)
EC50 [11]: > 60 µM (not active)
AC50 [12]: 3.2 µM (active)
AC50 (INS1): 2.85 µM (active)

O=C(C[n+]1cccc2ccccc21)c1ccc([N+](=O)[O-])cc1
AC50 [12]: 6.21 µM (active)

Cc1ccc(C(=O)N2CCN(c3ccc(C(F)(F)F)cn3)CC2)cc1
AC50 (Cytochrome P450 3A4): inconclusive

Cc1cc(NC(=O)COc2ccccc2)ccc1Cl
IC50 (cells): > 50 µM (active)

Cc1c(CCC(=O)N2CCC(C(=O)O)CC2)c(=O)oc2cc3oc4c(c3cc12)CCCC4
IC50 [1]: > 80 µM (inactive)

CCOc1ccccc1Nc1nnc(SCC(=O)NC(Cc2c[nH]c3ccccc23)C(=O)O)s1 (centres undefined)
IC50 (Leucine aminopeptidase): 7.81 µM (active)
IC50 (Aminopeptidase N): 67.4 µM (active)

Cc1ccccc1CNC(=O)CCCC(=O)n1nc(C)c2ccccc21
IC50 (Bcl-2-related protein A1): > 20 µM (inactive)
IC50 [6]: 13.5 µM (active)
IC50 [7]: 20 µM (active)

CCN(CC)S(=O)(=O)c1ccc(N2CCOCC2)c(NC(=O)c2[nH]c(C)c(C(C)=O)c2C)c1
IC50 [1]: > 80 µM (inactive)

Cc1cccc2c1c(/N=N/C(=N)S)c(O)n2C1OC(CO)C(O)C(O)C1O (centres undefined)
IC50 (Bcl-2-related protein A1): > 20 µM (inactive)
IC50 [6]: 10.7 µM (active)
IC50 [7]: 4.56 µM (active)

O=C(Nc1ccc2oc(=O)ccc2c1)c1ccc(-c2cccc(Cl)c2)o1
IC50 (SUMO-activating enzyme [4]): 15.8 µM (active)
IC50 (SUMO-activating enzyme [5]): 6.77 µM (active)
IC50 [13]: 11.6 µM (not active)
